IC50 data for two compounds are collected here from ChEMBL document CHEMBL5727585, “Carboxylic acid URAT1 inhibitor containing diarylmethane structure, preparation method and use thereof” (2020).

pIC50: −log10 of the molar value.

The target of this test is T1, Solute carrier family 22 member 12 (Homo sapiens, UniProt Q96S37).
T1 sequence (Q96S37 whole entry): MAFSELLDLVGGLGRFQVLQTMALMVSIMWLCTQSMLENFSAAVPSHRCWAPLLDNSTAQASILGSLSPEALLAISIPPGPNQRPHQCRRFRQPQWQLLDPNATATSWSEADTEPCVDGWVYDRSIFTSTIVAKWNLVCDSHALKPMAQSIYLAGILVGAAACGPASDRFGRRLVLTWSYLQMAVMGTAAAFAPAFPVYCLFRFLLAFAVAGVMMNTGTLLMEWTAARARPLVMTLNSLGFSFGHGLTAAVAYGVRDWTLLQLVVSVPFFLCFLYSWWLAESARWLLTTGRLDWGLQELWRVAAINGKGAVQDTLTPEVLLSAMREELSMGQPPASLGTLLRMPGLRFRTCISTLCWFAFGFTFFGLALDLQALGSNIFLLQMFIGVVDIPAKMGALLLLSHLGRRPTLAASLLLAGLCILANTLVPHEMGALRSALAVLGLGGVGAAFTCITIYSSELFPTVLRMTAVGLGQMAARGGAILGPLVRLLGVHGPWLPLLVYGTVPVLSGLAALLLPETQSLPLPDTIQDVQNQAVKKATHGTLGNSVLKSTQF
Description: IC50 for Inhibition of the Test Compounds on URAT1: After trypsin digestion, the expression cells (HEK293) stably expressing URAT1 gene and mock cells were all inoculated into lysine-coated 24-well culture plates, with the cell inoculation density being 1×10^5 cells/well, and cultured in incubator at 37° C., 5% CO2 and saturated humidity for 2 days. The culture fluid in the culture plate was removed, and the cultured cells were washed twice with DPBS and subjected to warm bath in DPBS buffer solution at 37° C. for 10 min, and then a solution (500 μL) containing radioactive labeled probe substrate ([8-14C] uric acid) and 10 μM test compound (or blank) was used to substitute for DPBS, with the concentration of [8-14C] uric acid being 30 μM and the radiation intensity per well being 0.867 μCi. After 2 min, the reaction was terminated with ice-bathed DPBS buffer solution and washing was carried out for three times. Then 0.1 mol/L NaOH (500 μL) was added into each well to lyse the cells, the lysate was extracted into a scintillation vial and a scintillation fluid (Aquasol-2, 3 mL) was added, and the intensity of radioactivity in the sample was measured using a Tri-Carb 2910TR liquid scintillation analyzer (PerkinElmer, Waltham, USA). […] […].

Consider `O=C(O)CCc1nnc(Br)n1-c1ccc(C2CC2)c2ccccc12`, for which the pIC50 (in general, −log10 of the IC50, conventionally taken in molar units) was 5.74. Regarding `CC(C)(Sc1nnc(Br)n1-c1ccc(C2CC2)c2ccccc12)C(=O)O`, the negative-log IC50 (pIC50) is 5.67.
